Experimental data taken from patent publication US12516016B2, “GPX4 inhibitors, pharmaceutical compositions thereof, and their use for treating GPX4-mediated diseases” (EUBULUS BIOTHERAPEUTICS (HONG KONG) LIMITED, priority 2020, dated 2026).

Test system: hepatocellular carcinoma cell line Hub-7
Assay: Cell proliferation assay (CELL-TITER GLO cell viability)
Type: cell-based
Settings: 24 h, Hub-7 cells, 24 h incubation, read-out: Inhibition of Cell Proliferation EC50
Method in brief: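 […] cells (4,000/well) seeded overnight, then exposed 24 h to compound from 10 μM in 3-fold serial dilutions. Viability read by CELL-TITER GLO luminescence; EC50 values derived.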

Compound | EC50 [µM]
C=C(F)C(=O)N(c1ccc(OC)c(Cl)c1)C(C(=O)NCc1ccccc1)c1cccc(N)c1 (stereo not shown) [B4, N-(1-(3-Aminophenyl)-2-(benzylamino)-2-oxoethyl)-N-(3-chloro-4-methoxy-phenyl)-2-fluoroacrylamide] | > 10
C=CC(=O)N(c1cccc(Cl)c1)C1(C(=O)NCc2ccccc2)CCOCC1 [B5, N-Benzyl-4-(N-(3-chlorophenyl)acrylamido)tetrahydro-2H-pyran-4-carboxamide] | > 10
C=CC(=O)N(CCc1ccccc1)C1(C(=O)NCc2ccccc2)CCOCC1 [B6, N-Benzyl-4-(N-phenethylacrylamido)tetrahydro-2H-pyran-4-carboxamide] | > 10
C=CC(=O)N(Cc1cccc(O)c1)C1(C(=O)NCc2ccccc2)CCOCC1 [B7, N-Benzyl-4-(N-(3-hydroxybenzyl)acrylamido)tetrahydro-2H-pyran-4-carboxamide] | > 10
C=CC(=O)N(C1CCC1)C1(C(=O)NCc2ccccc2)CCOCC1 [B8, N-Benzyl-4-(N-cyclobutylacrylamido)tetrahydro-2H-pyran-4-carboxamide] | > 10
C=C(F)C(=O)N(c1ccc2c(cnn2C)c1)C1(C(=O)NCc2ccccc2)CCOCC1 [B9, N-Benzyl-4-(2-fluoro-N-(1-methyl-1H-indazol-5-yl)acrylamido)tetrahydro-2H-pyran-4-carboxamide] | > 10
CN(C)C/C=C/C(=O)N(c1ccc2c(cnn2C)c1)C1(C(=O)NCc2ccccc2)CCOCC1 [B10, (E)-N-Benzyl-4-(4-(dimethylamino)-N-(1-methyl-1H-indazol-5-yl)but-2-enamido)tetrahydro-2H-pyran-4-carboxamide] | > 10
C=CC(=O)N(c1ccc2c(cnn2C)c1)C1(C(=O)NCc2ccccc2)CCOCC1 [B11, N-Benzyl-4-(N-(1-methyl-1H-indazol-5-yl)acrylamido)tetrahydro-2H-pyran-4-carboxamide] | > 10
CC(C)N(C(=O)CCl)C(C(=O)NCCc1ccccc1)c1cccs1 (stereo not shown) [C1, 2-chloro-N-isopropyl-N-(2-oxo-2-(phenethylamino)-1-(thiophen-2-yl)ethyl)acetamide] | > 10
Nc1ccc(N(C(=O)CCl)C(C(=O)NCCc2ccccc2)c2cccs2)cc1 (stereo not shown) [C2, N-(4-Aminophenyl)-2-chloro-N-(2-oxo-2-(phenethylamino)-1-(thiophen-2-yl)-ethyl)acetamide] | 2 to 10
COc1ccc(N(C(=O)CCl)C(C(=O)NCCc2ccccc2)c2ccc(N)cc2)cc1Cl (stereo not shown) [C3, 2-(4-aminophenyl)-2-(2-chloro-N-(3-chloro-4-methoxyphenyl)acetamido)-N-phenethylacetamide] | 0.1 to 0.5
COc1ccc(N(C(=O)CCl)C(C(=O)NCCc2ccccc2)c2ccc(NC(=O)CO)cc2)cc1Cl (stereo not shown) [C4, 2-chloro-N-(3-chloro-4-methoxyphenyl)-N-(1-(4-(2-hydroxyacetamido)phenyl)-2-oxo-2-(phenethylamino)ethyl)acetamide] | 0.5 to 2
O=C(NCCc1ccccc1)C(c1ccc([N+](=O)[O-])cc1)N(C(=O)CCl)c1cccc(Cl)c1 (stereo not shown) [C5, 2-chloro-N-(3-chlorophenyl)-N-(1-(4-nitrophenyl)-2-oxo-2-(phenethylamino)ethyl)acetamide] | 0.1 to 0.5
Nc1ccc(C(C(=O)NCCc2ccccc2)N(C(=O)CCl)c2cccc(Cl)c2)cc1 (stereo not shown) [C6, 2-chloro-N-(3-chlorophenyl)-N-(1-(4-aminophenyl)-2-oxo-2-(phenethylamino)ethyl)acetamide] | 0.5 to 2
COC(=O)c1cccc(N(C(=O)CCl)C(C(=O)NCCc2ccccc2)c2ccc([N+](=O)[O-])cc2)c1 (stereo not shown) [C7, Methyl-3-(2-chloro-N-(1-(4-nitrophenyl)-2-oxo-2-(phenethylamino)ethyl)-acetamido)benzoate] | 0.1 to 0.5
O=C(NCCc1ccccc1)C(c1ccc([N+](=O)[O-])cc1)N(Cc1cccs1)C(=O)CCl (stereo not shown) [C8, 2-Chloro-N-(1-(4-nitrophenyl)-2-oxo-2-(phenethylamino)ethyl)-N-(thiophen-2-ylmethyl)acetamide] | 2 to 10
